According to article PMC11544713, “The Application of Untargeted Metabolomic Approaches for the Search of Common Bioavailable Metabolites in Human Plasma Samples from Lippia citriodora and Olea europaea Extracts” (Journal of Agricultural and Food Chemistry, 2024):

Assay: Acute intervention: nutrikinetics of plasma metabolites after ingestion of O. europaea extract (untargeted HPLC-ESI-QTOF-MS)
Description: A total of 25 healthy individuals participated, with an average age of 27 ± 9 years and a mean body mass index (BMI) of 23 ± 3 kg/m^2. None of the participants were taking any medications or nutritional supplements nor did they have any chronic diseases or gastrointestinal issues. The sample size was established based on findings from previous bioavailability research.[14] All participants provided informed consent before participating in the study.
The intervention study was carried out at Miguel Hernández University. Following an overnight fast, the volunteers were categorized into the subsequent groups: a subgroup to evaluate the LC leaf extract (n = 8), another for the OE leaf extract (n = 8), and the placebo subgroup (n = 9). This was a double-blind study, in which sample collection and treatment were carried out uniformly across all three subgroups.
Water was provided ad libitum. Prior to the ingestion of the capsule, a nurse inserted a cannula into the ulnar vein of each volunteer’s nondominant arm, and blood samples were drawn into EDTA-coated tubes at baseline (t = 0). Blood samples were then collected at 0.5, 1, 2, 4, 6, 8, and 10 h after the consumption of the 500 mg capsule. Plasma was separated through centrifugation (10 min at 3000 rpm and 4 °C) and stored at −80 °C until further analysis.
Plasma samples were initially treated using a mixture of methanol and ethanol (50:50; v:v) to remove proteins, following previously reported protocols.[19] During the sample treatment, pooled quality controls (pooled-QC) were prepared by combining equal aliquots from each sample. These QC samples were processed by using the same protocols as the experimental biological samples.
A reversed-phase analytical C18 column (Agilent Zorbax Eclipse Plus, 1.8 μm, 4.6 × 150 mm^2) with a protective cartridge with the same packing was used. MS data were acquired in negative ionization mode, operating in full scan across a mass-to-charge ratio (m/z) range of 50–1700. The analytical method used was adapted from that described by Villegas-Aguilar et al.[19]
Metabolite nutrikinetics were studied using PKSolver, an add-in program for pharmacokinetic data analysis in Microsoft Excel. The time to reach the maximum concentration (observed Tmax) was calculated for each significant metabolite. As an untargeted metabolomic approach was used to detect the circulating metabolites, these were not quantified. Therefore, the maximum concentration (Cmax) and area under the curve (AUC) parameters were calculated in a relative way by using the deconvoluted chromatographic areas. […] Statistical differences were determined by unpaired t tests. All p values less than 0.05 were considered statistically significant.

[1] = 0.5 h after O. europaea extract
[2] = human plasma, 500 mg capsule of O. europaea (OE) extract, oral, mean ± SD

OC[C@H]1O[C@@H](OCc2ccoc2)[C@H](O)[C@@H](O)[C@@H]1O (single isomer, unassigned; isomer 2) [3-furanmethanol glucoside isomer 2, 3-furanmethanol glucoside]
mean chromatographic area in plasma, T0.5 [1]: 625
mean chromatographic area in plasma, T1 (1 h after O. europaea extract): 1234
mean chromatographic area in plasma, T2 (2 h after O. europaea extract): 961
mean chromatographic area in plasma, T4 (4 h after O. europaea extract): 483
mean chromatographic area in plasma, T6 (6 h after O. europaea extract): 250
mean chromatographic area in plasma, T8 (8 h after O. europaea extract): 113
mean chromatographic area in plasma, T10 (10 h after O. europaea extract): 0
Cmax: relative maximum plasma level [2]: 1234 ± 489 relative chromatographic area
observed Tmax: time required to reach Cmax [2]: 1 ± 0 h

COc1cc(C=O)ccc1O[C@@H]1O[C@H](C(=O)O)[C@@H](O)[C@H](O)[C@H]1O [vanillin glucuronide]
Cmax: relative maximum plasma level (human, in vivo, po, 500 mg): 180 ± 66 relative chromatographic area
observed Tmax: time required to reach Cmax (human, in vivo, po, 500 mg): 1 ± 0 h
mean chromatographic area in plasma, T0.5 (in vivo): 60
mean chromatographic area in plasma, T1 (in vivo): 180
mean chromatographic area in plasma, T2 (in vivo): 121
mean chromatographic area in plasma, T4 (in vivo): 40
mean chromatographic area in plasma, T6 (in vivo): 11
mean chromatographic area in plasma, T8 (in vivo): 0
mean chromatographic area in plasma, T10 (in vivo): 0

C[C@]12CC[C@@H](O[C@@H]3O[C@H](C(=O)O)[C@@H](O)[C@H](O)[C@H]3O)C[C@@H]1CC[C@@H]1[C@@H]2C(=O)C[C@@]2(C)[C@H]1CC[C@]2(O)[C@@H](O)CO [cortolone-3-glucuronide]
mean chromatographic area in plasma, T0.5 [1]: 0
mean chromatographic area in plasma, T1 (1 h after O. europaea extract): 0
mean chromatographic area in plasma, T2 (2 h after O. europaea extract): 0
mean chromatographic area in plasma, T4 (4 h after O. europaea extract): 160
mean chromatographic area in plasma, T6 (6 h after O. europaea extract): 82
mean chromatographic area in plasma, T8 (8 h after O. europaea extract): 63
mean chromatographic area in plasma, T10 (10 h after O. europaea extract): 0
Cmax: relative maximum plasma level [2]: 163 ± 88 relative chromatographic area
observed Tmax: time required to reach Cmax [2]: 4.4 ± 0.8 h

O=c1cc(-c2ccc(O)cc2)oc2c([C@@H]3O[C@H](CO)[C@@H](O)[C@H](O)[C@H]3O)c(O)c([C@@H]3O[C@H](CO)[C@@H](O)[C@H](O)[C@H]3O)c(O)c12 [vicenin-2]
Cmax: relative maximum plasma level (human, in vivo, po, 500 mg): 137 ± 59 relative chromatographic area
observed Tmax: time required to reach Cmax (human, in vivo, po, 500 mg): 1 ± 0 h
mean chromatographic area in plasma, T0.5 (in vivo): 34
mean chromatographic area in plasma, T1 (in vivo): 137
mean chromatographic area in plasma, T2 (in vivo): 46
mean chromatographic area in plasma, T4 (in vivo): 0
mean chromatographic area in plasma, T6 (in vivo): 0
mean chromatographic area in plasma, T8 (in vivo): 0
mean chromatographic area in plasma, T10 (in vivo): 0

COc1cc(-c2oc3cc(O[C@@H]4O[C@@H](C)[C@H](O)[C@@H](O)[C@H]4O)cc(O)c3c(=O)c2O[C@@H]2O[C@H](CO)[C@@H](O)[C@H](O)[C@H]2O)ccc1O [isorhamnetin 3-O-glucoside-7-O-rhamnoside]
mean chromatographic area in plasma, T0.5 [1]: 34
mean chromatographic area in plasma, T1 (1 h after O. europaea extract): 130
mean chromatographic area in plasma, T2 (2 h after O. europaea extract): 14
mean chromatographic area in plasma, T4 (4 h after O. europaea extract): 0
mean chromatographic area in plasma, T6 (6 h after O. europaea extract): 0
mean chromatographic area in plasma, T8 (8 h after O. europaea extract): 0
mean chromatographic area in plasma, T10 (10 h after O. europaea extract): 0
Cmax: relative maximum plasma level [2]: 133 ± 18 relative chromatographic area
observed Tmax: time required to reach Cmax [2]: 0.9 ± 0.2 h

COc1cc(C)cc(OC)c1OC [1,2,3-trimethoxy-5-methyl benzene]
mean chromatographic area in plasma, T0.5 [1]: 117
mean chromatographic area in plasma, T1 (1 h after O. europaea extract): 221
mean chromatographic area in plasma, T2 (2 h after O. europaea extract): 105
mean chromatographic area in plasma, T4 (4 h after O. europaea extract): 0
mean chromatographic area in plasma, T6 (6 h after O. europaea extract): 0
mean chromatographic area in plasma, T8 (8 h after O. europaea extract): 0
mean chromatographic area in plasma, T10 (10 h after O. europaea extract): 0
Cmax: relative maximum plasma level [2]: 221 ± 72 relative chromatographic area
observed Tmax: time required to reach Cmax [2]: 1 ± 0 h

10-hydroxy-7 -methoxyoleuropein [10-hydroxy-7-methoxyoleuropein isomer 2]
mean chromatographic area in plasma, T0.5 [1]: 11
mean chromatographic area in plasma, T1 (1 h after O. europaea extract): 164
mean chromatographic area in plasma, T2 (2 h after O. europaea extract): 229
mean chromatographic area in plasma, T4 (4 h after O. europaea extract): 148
mean chromatographic area in plasma, T6 (6 h after O. europaea extract): 34
mean chromatographic area in plasma, T8 (8 h after O. europaea extract): 0
mean chromatographic area in plasma, T10 (10 h after O. europaea extract): 0
Cmax: relative maximum plasma level [2]: 241 ± 89 relative chromatographic area
observed Tmax: time required to reach Cmax [2]: 1.9 ± 0.3 h

O=C(Oc1cc(O)c2c(c1)O[C@H](c1cc(O)c(O)c(O)c1)[C@H](O)C2)c1cc(O)c(O)c(O)c1 [epigallocatechin 7-O-gallate]
mean chromatographic area in plasma, T0.5 [1]: 14
mean chromatographic area in plasma, T1 (1 h after O. europaea extract): 126
mean chromatographic area in plasma, T2 (2 h after O. europaea extract): 12
mean chromatographic area in plasma, T4 (4 h after O. europaea extract): 0
mean chromatographic area in plasma, T6 (6 h after O. europaea extract): 0
mean chromatographic area in plasma, T8 (8 h after O. europaea extract): 0
mean chromatographic area in plasma, T10 (10 h after O. europaea extract): 0
Cmax: relative maximum plasma level [2]: 126 ± 30 relative chromatographic area
observed Tmax: time required to reach Cmax [2]: 1 ± 0 h
